Reference: publication PMC8206213, “An L-2-hydroxyglutarate biosensor based on specific transcriptional regulator LhgR” (Nature Communications, 2021)
Where “and” joins values, the source holds several entries; their conditions need not be identical. Equal entries are not always repeated.

Columns and labels:
LhgR = assay: EMSA, effect of compounds on LhgR binding to the lhgO promoter region F1; parameters: species or system Pseudomonas putida W619; conditions: 50 mM compound, 10 nM F1, 60 nM LhgR
Protocol: Electrophoretic mobility shift assays (EMSAs) were carried out using the DNA fragment (F1 or F2) and purified LhgR. The DNA fragments were first amplified by primer pairs F1-F/F1-R and F2-F/F2-R, respectively. Then, either fragment at a concentration of 10 nM DNA was incubated with LhgR (0–160 nM) in 20 μL EMSA binding buffer (10 mM Tris-HCl [pH 7.4], 50 mM KCl, 0.5 mM EDTA, 10% [vol/vol] glycerol, and 1 mM dithiothreitol [DTT]). The binding reactions were carried out at 30 °C for 30 min. Electrophoresis was performed on 6% native polyacrylamide gels at 4 °C and 170 V (constant voltage) for about 45 min, followed by staining with SYBR green I (TaKaRa, China) and photographing. Analysis of the interaction between lhgO promoter region (F1) and LHGFR was performed using the same procedure.
To characterize the effector of LhgR, purified LhgR was first incubated with L-lysine, 5-aminovalerate, glutarate, L-2-HG, D-2-HG, 2-KG, or succinate at 30 °C for 15 min, followed by incubation with the added DNA fragments at 30 °C for 30 min. The mixtures were subsequently subjected to electrophoresis.

[1] = system: LHGFR3N7C expressed in E. coli BL21(DE3); assay: Control biosensor LHGFR3N7C expressed in E. coli, response to added compounds; type: cell-based; conditions: Supplementary Fig. 14a
Protocol: (§1) To characterize the sensitivity and specificity of LHGFR expressed in E. coli BL21(DE3), 90 μL cell suspensions following 8 h carbon starvation were mixed with 10 μL increasing concentrations of L-2-HG or other compounds, and then added into a black 96-well plate (total 100 μL/per well), the fluorescence intensities were determined using an EnSight microplate reader (PerkinElmer, USA) and the following instrument settings: excitation at 430 nm, emission at 485 nm (mTFP) and 528 nm (Venus), time intervals of 5 min, the temperature at 37 °C, and shake at 180 rpm.

[2] = system: LHGFR0N3C expressed in HEK293FT cells; assay: Specificity of LHGFR0N3C expressed in permeabilized HEK293FT cells, 1 mM compounds; type: cell-based, human (HEK293FT cells); conditions: 1 mM compound, cells permeabilized with 10 μM digitonin, normalized to control
Protocol: To characterize the sensitivity and specificity of LHGFR expressed in HEK293FT cells, cells were trypsinized 48 h following transfection and suspended in 1× Hank’s balanced salt solution supplemented with 20 mM HEPES. […] Digitonin at a concentration of 10 μM was used to induce cell permeabilization and deplete intracellular L-2-HG for in vivo response curves construction. Then, the fluorescence intensities were determined by a SpectraMax i3 fluorescence plate reader (Molecular Devices, USA) with excitation at 430 nm and emission at 485 nm (mTFP) and 528 nm (Venus). Basal L-2-HG concentration in HEK293FT cells under physiological conditions was determined by substituting the emission ratios of non-permeabilized HEK293FT cells into the calibrated in vivo response curves.

[3] = system: LHGFR0N3C expressed in E. coli BL21(DE3); assay: Specificity of LHGFR0N3C expressed in E. coli BL21(DE3), 1 mM compounds; type: cell-based; conditions: for Emission ratio: 1 mM compound, Fig. 5c
Protocol: as §1

LHGFR0N3C [4] = assay: Influence of other compounds on the response of purified LHGFR0N3C to L-2-HG; type: binding, Pseudomonas putida W619
Protocol: (§2) Purified L-2-HG biosensors and different compounds were diluted by 50 mM Tris-HCl buffer (pH 7.4), mixed together in a black 96-well plate at a volume ratio of 3:1, and the fluorescence intensities were measured using an EnSight microplate reader (PerkinElmer, USA) with excitation at 430 nm, emission at 485 nm (mTFP) and 528 nm (Venus). […] The [L-2-HG], Kd, and p refer to the L-2-HG concentration, apparent dissociation constant, and Hill slope, respectively. Emission spectra were recorded at 430 nm excitation, in steps of 2 nm. Excitation spectra were recorded using emission at 550 nm, excitation from 380 to 535 nm in steps of 2 nm.

[5] = system: LHGFR0N7C expressed in E. coli BL21(DE3); assay: Specificity of LHGFR0N7C expressed in E. coli BL21(DE3), 1 mM compounds; type: cell-based; conditions: Supplementary Fig. 13c
Protocol: as §1

LHGFR0N3C [6] = assay: Specificity of purified LHGFR0N3C, emission ratio with 240 μM compounds; type: binding, Pseudomonas putida W619; conditions: 240 μM compound
Protocol: as §2

O=C(O)CC[C@@H](O)C(=O)O [D-2-HG]
Effect on LhgR binding to the lhgO promoter region F1 (LhgR): observed only in the presence of L-2-HG | normalized emission ratio of control biosensor expressed in E. coli ([1]; time 0 min): 1.02 and 1.012 and 1.01 and 1.0239 | normalized emission ratio of control biosensor expressed in E. coli ([1]; time 5 min): 1.007 and 1.013 and 1.012 and 1.022 | normalized emission ratio of control biosensor expressed in E. coli ([1]; time 10 min): 1.011 and 1.012 (2×) and 1.02 | normalized emission ratio of control biosensor expressed in E. coli ([1]; time 15 min): 1.008 and 1.007 and 1.013 and 1.022 | normalized emission ratio of control biosensor expressed in E. coli ([1]; time 20 min): 1.004 and 1.013 and 1.022 and 1.028 | normalized emission ratio of control biosensor expressed in E. coli ([1]; time 25 min): 1.0101 and 1.011 and 1.02 and 1.024 | normalized emission ratio of control biosensor expressed in E. coli ([1]; time 30 min): 1.007 and 1.022 and 1.016 and 1.027 | normalized emission ratio of control biosensor expressed in E. coli ([1]; time 35 min): 1.021 and 1.0176 and 1.025 and 1.027 | normalized emission ratio of control biosensor expressed in E. coli ([1]; time 40 min): 1.019 (2×) and 1.013 and 1.028 | normalized emission ratio of control biosensor expressed in E. coli ([1]; time 45 min): 1.015 and 1.017 and 1.0244 and 1.023 | normalized emission ratio of control biosensor expressed in E. coli ([1]; time 50 min): 1.007 and 1.012 and 1.0275 and 1.019 | normalized emission ratio of control biosensor expressed in E. coli ([1]; time 55 min): 1.011 (2×) and 1.037 and 1.027 | normalized emission ratio of control biosensor expressed in E. coli ([1]; time 60 min): 1.016 and 1.014 and 1.0182 and 1.0226 | normalized emission ratio of control biosensor expressed in E. coli ([1]; time 65 min): 1.014 and 1.022 and 1.029 and 1.023 | normalized emission ratio of control biosensor expressed in E. coli ([1]; time 70 min): 1.021 and 1.015 and 1.038 and 1.03 | normalized emission ratio of control biosensor expressed in E. coli ([1]; time 75 min): 1.0229 and 1.021 and 1.034 and 1.027 | normalized emission ratio of control biosensor expressed in E. coli ([1]; time 80 min): 1.027 and 1.023 and 1.038 (2×) | normalized emission ratio of control biosensor expressed in E. coli ([1]; time 85 min): 1.021 and 1.027 and 1.032 and 1.0274 | normalized emission ratio of control biosensor expressed in E. coli ([1]; time 90 min): 1.0277 and 1.033 and 1.04 and 1.032 | Normalized emission ratio [2]: 1.056 and 1.057 and 1.069 | Emission ratio ([3]; 0 min): 1.011 and 0.989 and 0.9926 | Emission ratio ([3]; 5 min): 1.03 and 1.001 and 1.013 | Emission ratio ([3]; 10 min): 1.043 and 1.03 and 1.027 | Emission ratio ([3]; 15 min): 1.0445 and 1.033 and 1.032 | Emission ratio ([3]; 20 min): 1.062 and 1.044 and 1.049 | Emission ratio ([3]; 25 min): 1.051 and 1.047 and 1.058 | Emission ratio ([3]; 30 min): 1.07 and 1.05 and 1.058 | Emission ratio ([3]; 35 min): 1.071 and 1.055 and 1.07 | Emission ratio ([3]; 40 min): 1.061 and 1.059 and 1.064 | Emission ratio ([3]; 45 min): 1.071 and 1.057 and 1.074 | Emission ratio ([3]; 50 min): 1.071 and 1.056 and 1.075 | Emission ratio ([3]; 55 min): 1.074 and 1.067 and 1.073 | Emission ratio ([3]; 60 min): 1.07 (2×) and 1.065 | Emission ratio ([3]; 65 min): 1.082 (2×) and 1.064 | Emission ratio ([3]; 70 min): 1.08 and 1.068 and 1.078 | Emission ratio ([3]; 75 min): 1.08 and 1.07 and 1.0822 | Emission ratio ([3]; 80 min): 1.068 and 1.078 and 1.077 | Emission ratio ([3]; 85 min): 1.078 and 1.065 and 1.085 | Emission ratio ([3]; 90 min): 1.07 and 1.071 and 1.074 | Increase of the emission ratio in E. coli BL21(DE3) ([3]; 1 mM exogenous compound): could not | Influence on the response of LHGFR0N3C to L-2-HG (LHGFR0N3C [4]; 240 μM D-2-HG, 1 mM 2-KG or 1 mM ATP for dose-response curves): could barely affect the response of LHGFR0N3C to L-2-HG | Emission ratio (LHGFR0N3C [4]; Suppl. Fig. 9a, L-2-HG alone or with the compound, three replicates): 2.0547 and 2.056 and 2.045 | normalized emission ratio of biosensor expressed in E. coli ([5]; time 0 min): 1.005 and 1.001 and 1.025 | normalized emission ratio of biosensor expressed in E. coli ([5]; time 5 min): 1.058 and 1.062 and 1.055 | normalized emission ratio of biosensor expressed in E. coli ([5]; time 10 min): 1.088 and 1.077 and 1.073 | normalized emission ratio of biosensor expressed in E. coli ([5]; time 15 min): 1.099 and 1.097 and 1.073 | normalized emission ratio of biosensor expressed in E. coli ([5]; time 20 min): 1.1106 and 1.107 and 1.081 | normalized emission ratio of biosensor expressed in E. coli ([5]; time 25 min): 1.121 and 1.111 and 1.082 | normalized emission ratio of biosensor expressed in E. coli ([5]; time 30 min): 1.109 and 1.1104 and 1.081 | normalized emission ratio of biosensor expressed in E. coli ([5]; time 35 min): 1.129 and 1.12 and 1.084 | normalized emission ratio of biosensor expressed in E. coli ([5]; time 40 min): 1.119 and 1.117 and 1.099 | normalized emission ratio of biosensor expressed in E. coli ([5]; time 45 min): 1.1243 and 1.118 and 1.09 | normalized emission ratio of biosensor expressed in E. coli ([5]; time 50 min): 1.133 and 1.117 and 1.095 | normalized emission ratio of biosensor expressed in E. coli ([5]; time 55 min): 1.1262 and 1.1195 and 1.107 | normalized emission ratio of biosensor expressed in E. coli ([5]; time 60 min): 1.117 and 1.122 and 1.102 | normalized emission ratio of biosensor expressed in E. coli ([5]; time 65 min): 1.12 and 1.121 and 1.101 | normalized emission ratio of biosensor expressed in E. coli ([5]; time 70 min): 1.122 and 1.126 and 1.113 | normalized emission ratio of biosensor expressed in E. coli ([5]; time 75 min): 1.124 and 1.132 and 1.112 | normalized emission ratio of biosensor expressed in E. coli ([5]; time 80 min): 1.131 and 1.12 and 1.117 | normalized emission ratio of biosensor expressed in E. coli ([5]; time 85 min): 1.127 and 1.1355 and 1.123 | normalized emission ratio of biosensor expressed in E. coli ([5]; time 90 min): 1.127 and 1.137 and 1.122 | Emission ratio (LHGFR0N3C [6]): 1.4562 and 1.441 and 1.426
